Measured values as given in the supplement of paper PMC7600603.

Columns and labels:
DLD1 NRF2-GOF [1] = experiment: drug sensitivity score (DSS) viability (DSS score); higher = more sensitive; extreme values may be limits of the assay; conditions: 72 h; CellTiter-Glo viability
In short: (§1)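 Cells grown in DMEM with 10% FBS were isogenic DLD1 colorectal cancer lines, NRF2 wild-type or CRISPR gain-of-function. In 384-well plates they received library compounds at 5 concentrations over a 10,000-fold range for 72 h before CellTiter-Glo readout on a Pherastar FS reader, normalised to vehicle wells and 100-μM positive-control wells. Dose-response fits used a four-parameter logistic model, from which EC50 and drug sensitivity score, a normalised area under the curve, were obtained.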

DLD1 NRF2-WT [2] = experiment: as above; conditions: 72 h; CellTiter-Glo viability
In short: as §1

DLD1 NRF2-GOF [3] = experiment: drug sensitivity score (DSS) cytotoxicity (DSS score); higher = more toxic; extreme values may be limits of the assay; conditions: 72 h; CellTox Green cytotoxicity
In short: (§2)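 In 384-well plates, isogenic DLD1 cells with NRF2 wild-type or CRISPR-edited status, grown in DMEM with 10% FBS, received library compounds at 5 concentrations spanning a 10,000-fold range. At 72 h, CellTox Green signals were read on a Pherastar FS reader and scaled between vehicle wells and 100-μM positive-control wells. Cytotoxicity endpoints, TC50 and a drug sensitivity score based on normalised area under the curve, came from logistic dose-response fits.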

DLD1 NRF2-WT [4] = experiment: as above; conditions: 72 h; CellTox Green cytotoxicity
In short: as §2

DLD1 NRF2-GOF [5] = conditions: 72 h; CellTiter-Glo viability
In short: as §1

DLD1 NRF2-WT [6] = conditions: 72 h; CellTiter-Glo viability
In short: as §1

DLD1 NRF2-GOF [7] = experiment: TC50 cytotoxicity; higher = less toxic; conditions: 72 h; CellTox Green cytotoxicity
In short: as §2

DLD1 NRF2-WT [8] = experiment: TC50 cytotoxicity; higher = less toxic; conditions: 72 h; CellTox Green cytotoxicity
In short: as §2

Row | SMILES | drug sensitivity score (DLD1 NRF2-GOF [1]) | drug sensitivity score (DLD1 NRF2-WT [2]) | drug sensitivity score (DLD1 NRF2-GOF [3]) | drug sensitivity score (DLD1 NRF2-WT [4]) | EC50 viability (DLD1 NRF2-GOF [5]) | EC50 viability (DLD1 NRF2-WT [6]) | TC50 cytotoxicity (DLD1 NRF2-GOF [7]) | TC50 cytotoxicity (DLD1 NRF2-WT [8])
1 | COc1cc(N2CCC(N3CCN(C)CC3)CC2)ccc1Nc1ncnc(Nc2ccccc2S(=O)(=O)C(C)C)n1 [ASP3026] | 3 | 3.3 | 0 | 0 | 3420 nM | 3550 nM | > 10000 nM | > 10000 nM
2 | O=C(NC1CCNCC1)c1n[nH]cc1NC(=O)c1c(Cl)cccc1Cl [AT7519] | 17.1 | 20 | 0 | 0 | 256 nM | 169 nM | > 10000 nM | > 10000 nM
3 | O=C(Nc1c[nH]nc1-c1nc2ccc(CN3CCOCC3)cc2[nH]1)NC1CC1 [AT9283] | 15.1 | 8.6 | 9.8 | 2.6 | 21.9 nM | 55.5 nM | 26.7 nM | > 1000 nM
4 | Cc1cc2c(C(C)C)c(O)c(O)c(C=O)c2c(O)c1-c1c(C)cc2c(C(C)C)c(O)c(O)c(C=O)c2c1O [AT 101] | 14.4 | 15.9 | 1 | 1.7 | 6100 nM | 4410 nM | > 100000 nM | 30300 nM
5 | CN[C@@H](C)C(=O)N[C@H]1CN(C(=O)CC(C)C)CC[C@H]2CC[C@@H](C(=O)NC(c3ccccc3)c3ccccc3)N2C1=O [AT-406] | 2.6 | 0 | 0 | 0 | 885 nM | > 10000 nM | > 10000 nM | > 10000 nM
6 | CC[C@H](CC#N)OC(=O)N[C@@H](C)c1cccc(NC(=O)Nc2ccc(-c3cnco3)c(OC)c2)c1 [AVN944] | 15.9 | 15.6 | 0 | 0 | 112 nM | 169 nM | > 10000 nM | > 10000 nM
7 | COc1cc(N2CCN(C)CC2)ccc1Nc1nccc(-c2cn(C)c3cnccc23)n1 [AZ191] | 5.2 | 7 | 0 | 0.3 | 1780 nM | 1590 nM | > 10000 nM | > 10000 nM
8 | CCN(CCO)CCCOc1ccc2c(Nc3cc(CC(=O)Nc4cccc(F)c4)[nH]n3)ncnc2c1 [AZD1152-HQPA] | 6.7 | 6.6 | 7.7 | 5.5 | 65.8 nM | 35.5 nM | 56.8 nM | 53.4 nM
9 | C=CCn1c(=O)c2cnc(Nc3ccc(N4CCN(C)CC4)cc3)nc2n1-c1cccc(C(C)(C)O)n1 [AZD1775] | 16.9 | 14.5 | 6.1 | 5.7 | 143 nM | 353 nM | 171 nM | 1000 nM
10 | C[C@@H]1COCCN1c1cc(C2([S@](C)(=N)=O)CC2)nc(-c2cc[nH]c3nccc2-3)n1 [AZD6738] | 4.5 | 7.8 | 0 | 0 | 3030 nM | 2670 nM | > 25000 nM | > 25000 nM
11 | NC(=O)Nc1cc(-c2cccc(F)c2)sc1C(=O)N[C@H]1CCCNC1 [AZD7762] | 7.6 | 5.3 | 1.7 | 2.2 | 106 nM | 175 nM | 362 nM | 247 nM
12 | COc1ccc(-c2ccc3c(N4CCOC[C@@H]4C)nc(N4CCOC[C@@H]4C)nc3n2)cc1CO [AZD8055] | 17.4 | 19.1 | 0 | 0 | 103 nM | 75.1 nM | > 10000 nM | > 10000 nM
13 | NC1(C(=O)N[C@@H](CCO)c2ccc(Cl)cc2)CCN(c2ncnc3[nH]ccc23)CC1 [AZD-5363] | 5.2 | 6.1 | 0 | 0 | 1510 nM | 687 nM | > 10000 nM | > 10000 nM
14 | Cc1ncc(-c2ccnc(Nc3ccc(S(C)(=O)=O)cc3)n2)n1C(C)C [AZD-5438] | 8.7 | 10.8 | 1.9 | 0.5 | 1440 nM | 1020 nM | > 10000 nM | > 10000 nM
15 | Cc1cc([C@@H](C)Nc2ccccc2C(=O)O)c2nc(N3CCOCC3)cc(=O)n2c1 [AZD-6482] | 0 | 0.1 | 0 | 0 | > 2500 nM | > 2500 nM | > 2500 nM | > 2500 nM
16 | CCN1CCN(Cc2ccc(Nc3ncc(F)c(-c4cc(F)c5nc(C)n(C(C)C)c5c4)n3)nc2)CC1 [Abemaciclib] | 6.6 | 11.5 | 0 | 0 | 134 nM | 26.6 nM | > 2500 nM | > 2500 nM
17 | CN(C)Cc1c(C(=O)NCCOc2ccc(C(=O)NO)cc2)oc2ccccc12 [Abexinostat] | 10.4 | 14 | 0.7 | 7.5 | 832 nM | 582 nM | > 10000 nM | 1250 nM
18 | CC#CC(=O)N1CCC[C@H]1c1nc(-c2ccc(C(=O)Nc3ccccn3)cc2)c2c(N)nccn12 [Acalabrutinib] | 4 | 1.7 | 0 | 0 | 110 nM | 284 nM | > 1000 nM | > 1000 nM
19 | COc1cc(C)c(/C=C/C(C)=C/C=C/C(C)=C/C(=O)O)c(C)c1C [Acitretin] | 10.3 | 15.5 | 0 | 0 | 103 nM | 20.2 nM | > 10000 nM | > 10000 nM
20 | CN(C)C/C=C/C(=O)Nc1cc2c(Nc3ccc(F)c(Cl)c3)ncnc2cc1O[C@H]1CCOC1 [Afatinib] | 2.9 | 3.3 | 0 | 0 | 145 nM | 148 nM | > 1000 nM | > 1000 nM
21 | COc1cccc2c1C(=O)c1c(O)c3c(c(O)c1C2=O)C[C@@](O)(/C(CO)=N/NC(=O)CCCCCN1C(=O)C=CC1=O)C[C@@H]3O[C@H]1C[C@H](N)[C@H](O)[C@H](C)O1 [Aldoxorubicin] | 7.6 | 8.5 | 0 | 0 | 149 nM | 137 nM | > 1000 nM | > 1000 nM
22 | COc1cc(Nc2ncc3c(n2)-c2ccc(Cl)cc2C(c2c(F)cccc2OC)=NC3)ccc1C(=O)O [Alisertib] | 15.9 | 10.3 | 6.6 | 2.8 | 47.8 nM | 27.9 nM | 205 nM | 939 nM
